Data published in paper PMC4521866 (PLoS ONE, 2015).

assay: Solubility and structural stability of peptides; type: physicochemical; conditions: effect of adding HR2 hydrophilic residues to the LK21 N-terminus; qualitative

Question: Which “solubility and structural stability” value does the source give for `CC[C@H](C)[C@H](NC(=O)[C@H](Cc1ccc(O)cc1)NC(=O)[C@H](Cc1c[nH]c2ccccc12)NC(=O)[C@H](CC(C)C)NC(=O)[C@H](Cc1c[nH]c2ccccc12)NC(=O)[C@H](CC(N)=O)NC(=O)[C@@H](NC(=O)[C@@H](NC(=O)[C@H](CC(N)=O)NC(=O)[C@H](Cc1ccccc1)NC(=O)[C@H](Cc1c[nH]c2ccccc12)NC(=O)[C@H](CC(N)=O)NC(=O)[C@H](Cc1c[nH]c2ccccc12)NC(=O)[C@H](CC(C)C)NC(=O)[C@H](CO)NC(=O)[C@H](C)NC(=O)[C@H](Cc1c[nH]c2ccccc12)NC(=O)[C@H](CCCCN)NC(=O)[C@H](CC(=O)O)NC(=O)[C@H](CC(C)C)NC(=O)[C@H](CCC(=O)O)NC(=O)[C@H](CC(C)C)NC(=O)[C@H](CC(C)C)NC(=O)[C@H](CCC(=O)O)NC(=O)[C@H](CCC(N)=O)NC(=O)[C@H](CCC(=O)O)NC(=O)[C@H](CC(N)=O)NC(=O)[C@H](CCCCN)NC(=O)[C@H](CCC(=O)O)NC(C)=O)[C@@H](C)CC)[C@@H](C)O)C(=O)N[C@@H](CCCCN)C(N)=O` [EK30] here?
Answer: greatly enhanced

Question: For `CC[C@H](C)[C@H](NC(=O)[C@H](Cc1ccc(O)cc1)NC(=O)[C@H](Cc1c[nH]c2ccccc12)NC(=O)[C@H](CC(C)C)NC(=O)[C@H](Cc1c[nH]c2ccccc12)NC(=O)[C@H](CC(N)=O)NC(=O)[C@@H](NC(=O)[C@@H](NC(=O)[C@H](CC(N)=O)NC(=O)[C@H](Cc1ccccc1)NC(=O)[C@H](Cc1c[nH]c2ccccc12)NC(=O)[C@H](CC(N)=O)NC(=O)[C@H](Cc1c[nH]c2ccccc12)NC(=O)[C@H](CC(C)C)NC(=O)[C@H](CO)NC(=O)[C@H](C)NC(=O)[C@H](Cc1c[nH]c2ccccc12)NC(=O)[C@H](CCCCN)NC(=O)[C@H](CC(=O)O)NC(=O)[C@H](CC(C)C)NC(=O)[C@H](CCC(=O)O)NC(=O)[C@H](CC(C)C)NC(=O)[C@H](CC(C)C)NC(=O)[C@H](CCC(=O)O)NC(=O)[C@H](CCC(N)=O)NC(C)=O)[C@@H](C)CC)[C@@H](C)O)C(=O)N[C@@H](CCCCN)C(N)=O` [QK26], which “solubility and structural stability” value is on record?
Answer: greatly enhanced

Question: Which “solubility and structural stability” value does the source give for “Ac-EESQNQQEKNEQELLELDKWASLWNWFNITNWLWYIK-NH2 [EK37]” here?
Answer: greatly enhanced
